Peptide text beside a SMILES is read from it.
Key:
[1] = system: C. neoformans IFM 5844 cells; assay: Cell membrane permeability, calcein-AM assay by flow cytometry; assay type: cell-based, Cryptococcus neoformans; settings: half-MIC, 2 h, 30 °C, YNB
Protocol: The effect of the peptides on the cell membrane permeability of C. neoformans IFM 5844 cells was checked by flow cytometry with calcein-AM assay ([Olson, et al., 2001]). Calcein-acetoxymethyl ester (calcein-AM) is a membrane-permeable live-cell dye that, upon entering the cell, is cleaved by intracellular esterases, converting it into calcein, a membrane-impermeable fluorescent marker. The assay was carried out by suspending a total of 1 × 10^7 cells in 100 µl YNB medium containing 20 µg/mL indomethacin (Sigma-Aldrich, Saint Louis, MO, USA) and incubating them at 30 °C for 30 min to inhibit calcein transporters. Following this pre-treatment, membrane-permeable calcein-AM (Invitrogen, Waltham, MA, USA) was added to a final concentration of 5 µg/mL, and the samples were incubated at 30 °C for 3 h allowing the calcein-AM to enter the cells where esterases converted it to fluorescent calcein. After incubation, cells were washed twice with sterile distilled water and subsequently exposed to peptides at half-MIC concentrations in YNB medium for 2 h at 30 °C. Following peptide treatment, cells were washed twice with sterile distilled water, and fluorescence intensity was measured using a FlowSight® flow cytometer (Amnis-EMD Millipore) equipped with a 488-nm excitation laser. Intact cells stained with calcein-AM but not exposed to peptides served as controls. To ensure statistical reliability, four independent experiments were conducted, and fluorescence intensity was recorded from 10,000 cells per sample during each experiment.

[2] = system: C. neoformans IFM 5844 protoplasts; assay: Susceptibility of protoplasts to peptide, CFU counts; assay type: cell-based, Cryptococcus neoformans; settings: 30 min, YNB + 0.8 M sorbitol
Protocol: The C. neoformans IFM 5844 strain was grown in YPD nutrient solution at 30 °C for 12 h by vigorous shaking until the exponential phase was reached (about 5 × 10^7 cells/mL).
For protoplast preparation cells were harvested by centrifugation and re-suspended in 20 mL of pre-treatment buffer (10 mM Tris–HCl, pH 9; 5 mM EDTA-Na2) supplemented with 0.1 % 2-mercaptoethanol. After incubation at room temperature for 20 min, the samples were centrifuged and the cell pellet was washed with 0.8 M sorbitol solution. The pellet was then re-suspended in 20 mL of protoplasting solution (prepared by dissolving 1 g lyophilised Helix pomatia digestive enzyme in 100 mL sorbitol) and the suspension was incubated for 60 min at room temperature. Protoplast formation was monitored every 30 min under bright field microscope. Once formed, protoplasts were collected by centrifugation, washed twice with 0.8 M sorbitol, and their concentration was determined in a Bürker chamber.
To assess peptide susceptibility, 2 × 10^6 protoplasts and the same number of intact cells were treated separately with X1-NCR247C peptide at 0.78 or 0.39 µM in YNB supplemented with 0.8 M sorbitol for 30 min at 30 °C. […] Plates were incubated for 3 days at 30 °C, after which colony forming units were counted to determine the survival rate of peptide-treated cells and protoplasts.

## CSCC[C@H](NC(=O)[C@H](CCCCN)NC(=O)[C@H](Cc1ccccc1)NC(=O)[C@H](CC(N)=O)NC(=O)[C@H](CC(C)C)NC(=O)[C@@H]1CCCN1C(=O)[C@@H](N)CCCNC(=N)N)C(=O)N[C@@H](CC(C)C)C(=O)N[C@@H](CCCNC(=N)N)C(=O)N[C@@H](Cc1ccccc1)C(=O)N[C@@H](Cc1c[nH]c2ccccc12)C(=O)NCC(=O)N[C@@H](CCC(N)=O)C(=O)N[C@@H](CCC(N)=O)C(=O)N[C@@H](CCC(N)=O)C(=O)N[C@@H](CS)C(=O)N[C@@H](CCCNC(=N)N)C(=O)N[C@@H](CCCNC(=N)N)C(=O)N1CCC[C@H]1C(=O)N[C@@H](CC(C)C)C(=O)N[C@@H](Cc1ccc(O)cc1)C(=O)N[C@@H](CS)C(=O)N[C@@H](CCCNC(=N)N)C(=O)N[C@@H](CCCNC(=N)N)C(=O)N[C@@H](CCCNC(=N)N)C(N)=O [X1-NCR247C] (H-RPLNFKMLRFWGQQQCRRPLYCRRR-NH2; N-terminus assumed)
[1]
  calcein leakage / membrane permeability disruption: slightly weaker effect
[2]; 0.39 µM
  CFU count reduction relative to untreated control: 43%
[2]; 0.78 µM
  CFU count reduction relative to untreated control: 83%
